Experimental findings from patent US20260116920A1, “HUMAN TRANSFERRIN RECEPTOR BINDING PEPTIDE” (PEPTIDREAM INC., priority 2021, published 2026) are described below.

Starred links: 1 amine or outer side, 2 acyl side, 3 side chain; linkers in the order of their positions; H or OH if unused. Positions of bridges follow the written chain, without caps; N, C: chain ends. Non-standard residues stand in square brackets, D forms with d. Residues, ends and D or L forms follow the SMILES beside them. Groups on a side chain read outwards from the residue. *: point of attachment. Trp(1-CH2COOH) = N[C@@H](Cc1cn(CC(=O)O)c2ccccc12)C(=O)O; Meglumine = CN(C[C@H](O)[C@@H](O)[C@H](O)[C@H](O)CO)*; Phe(3-COOH) = N[C@@H](Cc1cccc(C(=O)O)c1)C(=O)O; NH(CH2CH2O)8Me = COCCOCCOCCOCCOCCOCCOCCOCCN*; NMePhe(3-Cl) = CN[C@@H](Cc1cccc(Cl)c1)C(=O)O; 3Pal(6-NH2) = Nc1ccc(C[C@H](N)C(=O)O)cn1; Lys(N3) = [N-]=[N+]=NCCCC[C@H](N)C(=O)O; NMeY = CN[C@@H](Cc1ccc(O)cc1)C(=O)O; 3Pal = N[C@@H](Cc1cccnc1)C(=O)O; 4Pal = N[C@@H](Cc1ccncc1)C(=O)O; PEG4 = NCCOCCOCCOCCOCCC(=O)O; Carboxymethyl = O=C(O)C*; CO = O=C([*:1])[*:2]

T1 sequence (P02786 89-760 limits assumed): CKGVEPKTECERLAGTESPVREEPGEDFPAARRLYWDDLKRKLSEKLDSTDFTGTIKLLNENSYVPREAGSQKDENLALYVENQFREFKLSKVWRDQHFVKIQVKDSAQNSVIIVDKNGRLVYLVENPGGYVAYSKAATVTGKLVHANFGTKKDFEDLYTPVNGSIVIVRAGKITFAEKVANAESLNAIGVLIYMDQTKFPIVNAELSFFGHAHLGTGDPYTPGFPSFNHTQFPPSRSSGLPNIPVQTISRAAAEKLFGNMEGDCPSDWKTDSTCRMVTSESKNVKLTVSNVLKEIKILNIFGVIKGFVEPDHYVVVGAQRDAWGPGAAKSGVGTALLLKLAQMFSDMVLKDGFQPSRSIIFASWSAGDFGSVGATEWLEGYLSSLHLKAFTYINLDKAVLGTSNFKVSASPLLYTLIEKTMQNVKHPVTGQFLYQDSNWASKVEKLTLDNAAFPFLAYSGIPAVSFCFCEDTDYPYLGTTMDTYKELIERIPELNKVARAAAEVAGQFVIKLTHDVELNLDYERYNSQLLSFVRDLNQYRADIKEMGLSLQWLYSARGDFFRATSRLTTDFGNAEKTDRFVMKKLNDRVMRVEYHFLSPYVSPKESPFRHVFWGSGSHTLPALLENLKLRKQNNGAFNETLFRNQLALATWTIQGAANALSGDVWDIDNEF

The experiment has as its target T1, human transferrin receptor (hTfR) (Homo sapiens, UniProt P02786).
T1 construct: made in house
Description: Evaluation of molecular interaction between transferrin receptor (hTfR) and peptide using surface plasmon resonance (SPR). The settings on record: surface plasmon resonance, binding to hTfR; KD class symbol; read-out: SPR (KD value). The format is binding. Put shortly: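 Steps: NTA chip loaded with NiCl2, activated with EDC/NHS, coated with 0.5 μM hTfR dimer, capped with ethanolamine. Peptides diluted from DMSO stock into running buffer (pH 8.0, 1.0% DMSO) at 5–100 nM and injected in single-cycle mode. Sensorgrams fitted to give KD.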
By Kd is commonly meant the constant that tells how readily two partners part at equilibrium. Consider `CC[C@H](C)[C@@H]1NC(=O)[C@H](Cc2cccnc2)NC(=O)[C@H](Cc2ccc(O)cc2)NC(=O)[C@H](CC(N)=O)NC(=O)[C@H](Cc2c[nH]c3ccccc23)NC(=O)[C@H](C(C)C)NC(=O)[C@H](Cc2cccc(Cl)c2)N(C)C(=O)[C@H](C(C)C)NC(=O)[C@H](C)NC(=O)CSC[C@@H](C(=O)NCCOCCOCCOCCOCCC(N)=O)NC(=O)[C@H](Cc2ccc(O)cc2)N(C)C(=O)[C@H](Cc2ccncc2)NC(=O)[C@H](CCC(N)=O)NC(=O)[C@H](CCC(N)=O)NC(=O)[C@H]([C@@H](C)CC)NC1=O` [compound 67] ({CH2CO}-AV[NMePhe(3-Cl)]VWNY[3Pal]IIQQ[4Pal][NMeY]C[PEG4]-NH2; thioether N-15), for which the dissociation constant Kd is 1 to 100 nM.
As to `CC[C@H](C)[C@@H]1NC(=O)[C@H](Cc2cccnc2)NC(=O)[C@H](Cc2ccc(O)cc2)NC(=O)[C@H](CC(N)=O)NC(=O)[C@H](Cc2c[nH]c3ccccc23)NC(=O)[C@H](C(C)C)NC(=O)[C@H](Cc2cccc(Cl)c2)N(C)C(=O)[C@H](C(C)C)NC(=O)[C@H](C)NC(=O)CSC[C@@H](C(=O)NCC(=O)N[C@H](CCCCNC(=O)N(C)C[C@H](O)[C@@H](O)[C@H](O)[C@H](O)CO)C(=O)N[C@H](CCCCNC(=O)N(C)C[C@H](O)[C@@H](O)[C@H](O)[C@H](O)CO)C(=O)N[C@H](CCCCNC(=O)N(C)C[C@H](O)[C@@H](O)[C@H](O)[C@H](O)CO)C(=O)N[C@H](CO)C(=O)N[C@H](CO)C(=O)N[C@@H](CCCCN=[N+]=[N-])C(N)=O)NC(=O)[C@H](Cc2ccc(O)cc2)N(C)C(=O)[C@H](Cc2ccncc2)NC(=O)[C@H](CCCNC(=N)N)NC(=O)[C@H](CCCNC(=N)N)NC(=O)[C@H]([C@@H](C)CC)NC1=O` [compound 68] ({CH2CO}-AV[NMePhe(3-Cl)]VWNY[3Pal]IIRR[4Pal][NMeY]CG[dK]([CO-Meglumine])[dK]([CO-Meglumine])[dK]([CO-Meglumine])[dS][dS][Lys(N3)]-NH2; thioether N-15), the Kd is 1 to 100 nM.
`CC[C@H](C)[C@@H]1NC(=O)[C@H](Cc2cccnc2)NC(=O)[C@H](Cc2ccc(O)cc2)NC(=O)[C@H](CC(N)=O)NC(=O)[C@H](Cc2c[nH]c3ccccc23)NC(=O)[C@H](C(C)C)NC(=O)[C@H](Cc2cccc(Cl)c2)N(C)C(=O)[C@H](C(C)C)NC(=O)[C@H](C)NC(=O)CSC[C@@H](C(=O)NCC(=O)N[C@H](CCC(=O)O)C(=O)N[C@H](CCC(=O)O)C(=O)N[C@H](CCC(=O)O)C(=O)N[C@H](CO)C(=O)N[C@H](CO)C(=O)N[C@@H](CCCCN=[N+]=[N-])C(N)=O)NC(=O)[C@H](Cc2ccc(O)cc2)N(C)C(=O)[C@H](Cc2ccncc2)NC(=O)[C@H](CCCNC(=N)N)NC(=O)[C@H](CCCNC(=N)N)NC(=O)[C@H]([C@@H](C)CC)NC1=O` [compound 69]: the equilibrium dissociation constant (Kd) was 1 to 100 nM.
In the case of `CC[C@H](C)[C@@H]1NC(=O)[C@H](Cc2ccc(OC)cc2)NC(=O)[C@H](Cc2ccc(O)cc2)NC(=O)[C@H](CC(N)=O)NC(=O)[C@H](Cc2cn(CC(=O)O)c3ccccc23)NC(=O)[C@H](C(C)C)NC(=O)[C@H](Cc2cccc(Cl)c2)N(C)C(=O)[C@H](C(C)C)NC(=O)[C@H](C)NC(=O)CSC[C@@H](C(=O)NCCOCCOCCOCCOCCC(N)=O)NC(=O)[C@H](Cc2ccc(O)cc2)N(C)C(=O)[C@H](Cc2ccccc2)NC(=O)[C@H](CCC(=O)NCCOCCOCCOCCOCCOCCOCCOCCOC)NC(=O)[C@H](CCCNC(=N)N)NC(=O)[C@H]([C@@H](C)CC)NC1=O` [compound 70], the Kd is 1 to 100 nM.
On to `CC[C@H](C)[C@@H]1NC(=O)[C@H](Cc2ccc(OCC(=O)O)cc2)NC(=O)[C@H](Cc2ccc(N)nc2)NC(=O)[C@H](CC(N)=O)NC(=O)[C@H](Cc2cn(CC(=O)O)c3ccccc23)NC(=O)[C@H](C(C)C)NC(=O)[C@H](Cc2cccc(Cl)c2)N(C)C(=O)[C@H](C(C)C)NC(=O)[C@H](C)NC(=O)CSC[C@@H](C(=O)NCCOCCOCCOCCOCCC(N)=O)NC(=O)[C@H](Cc2ccc(O)cc2)N(C)C(=O)[C@H](Cc2ccccc2)NC(=O)[C@H](CCCNC(=N)N)NC(=O)[C@H](CCCNC(=N)N)NC(=O)[C@H]([C@@H](C)CC)NC1=O` [compound 71] ({CH2CO}-AV[NMePhe(3-Cl)]V[Trp(1-CH2COOH)]N[3Pal(6-NH2)]Y(Carboxymethyl)IIRRF[NMeY]C[PEG4]-NH2; thioether N-15), for which the equilibrium dissociation constant (Kd) was in the range of 1 to 100 nM.
Regarding `CC[C@H](C)[C@@H]1NC(=O)[C@H](Cc2ccc(OC)cc2)NC(=O)[C@H](Cc2ccc(N)nc2)NC(=O)[C@H](CC(N)=O)NC(=O)[C@H](Cc2cn(CC(=O)O)c3ccccc23)NC(=O)[C@H](C(C)C)NC(=O)[C@H](Cc2cccc(Cl)c2)N(C)C(=O)[C@H](C(C)C)NC(=O)[C@H](C)NC(=O)CSC[C@@H](C(=O)NCCOCCOCCOCCOCCC(N)=O)NC(=O)[C@H](Cc2ccc(O)cc2)N(C)C(=O)[C@H](Cc2cccc(C(=O)O)c2)NC(=O)[C@H](CCCNC(=N)N)NC(=O)[C@H](CCCNC(=N)N)NC(=O)[C@H]([C@@H](C)CC)NC1=O` [compound 72] ({CH2CO}-AV[NMePhe(3-Cl)]V[Trp(1-CH2COOH)]N[3Pal(6-NH2)]Y(Me)IIRR[Phe(3-COOH)][NMeY]C[PEG4]-NH2; thioether N-15), the dissociation constant Kd lay within 1 to 100 nM.
Regarding `CC[C@H](C)[C@@H]1NC(=O)[C@H](Cc2cccnc2)NC(=O)[C@H](Cc2ccc(O)cc2)NC(=O)[C@H](CC(N)=O)NC(=O)[C@H](Cc2cn(CC(=O)O)c3ccccc23)NC(=O)[C@H](C(C)C)NC(=O)[C@H](Cc2cccc(Cl)c2)N(C)C(=O)[C@H](C(C)C)NC(=O)[C@H](C)NC(=O)CSC[C@@H](C(=O)NCCOCCOCCOCCOCCC(N)=O)NC(=O)[C@H](Cc2ccc(O)cc2)N(C)C(=O)[C@H](Cc2ccccc2)NC(=O)[C@H](CCC(=O)NCCOCCOCCOCCOCCOCCOCCOCCOC)NC(=O)[C@H](CCCNC(=N)N)NC(=O)[C@H]([C@@H](C)CC)NC1=O` [compound 73] ({CH2CO}-AV[NMePhe(3-Cl)]V[Trp(1-CH2COOH)]NY[3Pal]IIRE(NH(CH2CH2O)8Me)F[NMeY]C[PEG4]-NH2; thioether N-15), the equilibrium dissociation constant (Kd) lay within 1 to 100 nM.
`CC[C@H](C)[C@@H]1NC(=O)[C@H](Cc2cccnc2)NC(=O)[C@H](Cc2ccc(O)cc2)NC(=O)[C@H](CC(N)=O)NC(=O)[C@H](Cc2cn(CC(=O)O)c3ccccc23)NC(=O)[C@H](C(C)C)NC(=O)[C@H](Cc2cccc(Cl)c2)N(C)C(=O)[C@H](C(C)C)NC(=O)[C@H](C)NC(=O)CSC[C@@H](C(=O)NCCOCCOCCOCCOCCC(N)=O)NC(=O)[C@H](Cc2ccc(O)cc2)N(C)C(=O)[C@H](Cc2cccc(C(=O)O)c2)NC(=O)[C@H](CCCNC(=N)N)NC(=O)[C@H](CCCNC(=N)N)NC(=O)[C@H]([C@@H](C)CC)NC1=O` [compound 74] ({CH2CO}-AV[NMePhe(3-Cl)]V[Trp(1-CH2COOH)]NY[3Pal]IIRR[Phe(3-COOH)][NMeY]C[PEG4]-NH2; thioether N-15): the dissociation constant Kd is 1 to 100 nM.
Consider `CC[C@H](C)[C@@H]1NC(=O)[C@H](Cc2ccc(OCC(=O)O)cc2)NC(=O)[C@H](Cc2ccc(O)cc2)NC(=O)[C@H](CC(N)=O)NC(=O)[C@H](Cc2cn(CC(=O)O)c3ccccc23)NC(=O)[C@H](C(C)C)NC(=O)[C@H](Cc2cccc(Cl)c2)N(C)C(=O)[C@H](C(C)C)NC(=O)[C@H](C)NC(=O)CSC[C@@H](C(=O)NCCOCCOCCOCCOCCC(N)=O)NC(=O)[C@H](Cc2ccc(O)cc2)N(C)C(=O)[C@H](Cc2cccc(C(=O)O)c2)NC(=O)[C@H](CCCNC(=N)N)NC(=O)[C@H](CCCNC(=N)N)NC(=O)[C@H]([C@@H](C)CC)NC1=O` [compound 75], for which the equilibrium dissociation constant (Kd) is 1 to 100 nM.
Next, `CC[C@H](C)[C@@H]1NC(=O)[C@H](Cc2ccc(OCC(=O)O)cc2)NC(=O)[C@H](Cc2ccc(O)cc2)NC(=O)[C@H](CC(N)=O)NC(=O)[C@H](Cc2cn(CC(=O)O)c3ccccc23)NC(=O)[C@H](C(C)C)NC(=O)[C@H](Cc2cccc(Cl)c2)N(C)C(=O)[C@H](C(C)C)NC(=O)[C@H](C)NC(=O)CSC[C@@H](C(=O)NCCOCCOCCOCCOCCC(N)=O)NC(=O)[C@H](Cc2ccc(O)cc2)N(C)C(=O)[C@H](Cc2ccncc2)NC(=O)[C@H](CCCNC(=N)N)NC(=O)[C@H](CCCNC(=N)N)NC(=O)[C@H]([C@@H](C)CC)NC1=O` [compound 76]: 1 to 100 nM.
Next, `CC[C@H](C)[C@@H]1NC(=O)[C@H](Cc2ccc(OC)cc2)NC(=O)[C@H](Cc2ccc(O)cc2)NC(=O)[C@H](CC(N)=O)NC(=O)[C@H](Cc2cn(CC(=O)O)c3ccccc23)NC(=O)[C@H](C(C)C)NC(=O)[C@H](Cc2cccc(Cl)c2)N(C)C(=O)[C@H](C(C)C)NC(=O)[C@H](C)NC(=O)CSC[C@@H](C(=O)NCCOCCOCCOCCOCCC(N)=O)NC(=O)[C@H](Cc2ccc(O)cc2)N(C)C(=O)[C@H](Cc2cccc(C(=O)O)c2)NC(=O)[C@H](CCC(=O)NCCOCCOCCOCCOCCOCCOCCOCCOC)NC(=O)[C@H](CCCNC(=N)N)NC(=O)[C@H]([C@@H](C)CC)NC1=O` [compound 77] ({CH2CO}-AV[NMePhe(3-Cl)]V[Trp(1-CH2COOH)]NYY(Me)IIRE(NH(CH2CH2O)8Me)[Phe(3-COOH)][NMeY]C[PEG4]-NH2; thioether N-15): 1 to 100 nM; `CC[C@H](C)[C@@H]1NC(=O)[C@H](Cc2ccc(OC)cc2)NC(=O)[C@H](Cc2ccc(O)cc2)NC(=O)[C@H](CC(N)=O)NC(=O)[C@H](Cc2cn(CC(=O)O)c3ccccc23)NC(=O)[C@H](C(C)C)NC(=O)[C@H](Cc2cccc(Cl)c2)N(C)C(=O)[C@H](C(C)C)NC(=O)[C@H](C)NC(=O)CSC[C@@H](C(=O)NCCOCCOCCOCCOCCC(N)=O)NC(=O)[C@H](Cc2ccc(O)cc2)N(C)C(=O)[C@H](Cc2ccncc2)NC(=O)[C@H](CCC(=O)NCCOCCOCCOCCOCCOCCOCCOCCOC)NC(=O)[C@H](CCCNC(=N)N)NC(=O)[C@H]([C@@H](C)CC)NC1=O` [compound 78] ({CH2CO}-AV[NMePhe(3-Cl)]V[Trp(1-CH2COOH)]NYY(Me)IIRE(NH(CH2CH2O)8Me)[4Pal][NMeY]C[PEG4]-NH2; thioether N-15): 1 to 100 nM.
